Values quoted from earlier work as cited in US7863273B2, “Process for the preparation of an optically active 5H-pyrrolo [3,4-B] pyrazine derivative” (Glenmark Generics Ltd., priority 2006, dated 2011).

Key:
[1] = system: pentetrazol-induced convulsions; settings: relative to zopiclone (racemate)
[2] = system: central benzodiazepine receptor sites; settings: relative to zopiclone (racemate)
[3] = not given; remark: listed apart in the source
writhing reflex = settings: relative to zopiclone (racemate)

SMILES: CN1CCN(C(=O)O[C@@H]2c3nccnc3C(=O)N2c2ccc(Cl)cn2)CC1 (single isomer, unassigned) [laevorotatory isomer]
- potency of action: antagonist activity with respect to pentetrazol-induced convulsions [1]: almost inactive
- activity as compared to the racemate: almost inactive
- potency of action: affinity for central benzodiazepine receptor sites [2]: almost inactive
- toxicity as compared to the racemate [3]: more toxic than the racemate
- potency of action: writhing reflex test in mice (writhing reflex): almost inactive

SMILES: CN1CCN(C(=O)O[C@H]2c3nccnc3C(=O)N2c2ccc(Cl)cn2)CC1 [dextrorotatory isomer, (+)-(5S)-6-(chloropyridin-2-yl)-7-oxo-6,7-dihydro-5H-pyrrol[3,4-b]pyrazin-5-yl 4-methylpiperazine-1-carboxylate]
- potency of action: antagonist activity with respect to pentetrazol-induced convulsions [1]: approximately twice as active
- activity as compared to the racemate: approximately twice as active
- potency of action: affinity for central benzodiazepine receptor sites [2]: approximately twice as active
- toxicity as compared to the racemate [3]: lower toxicity
- potency of action: writhing reflex test in mice (writhing reflex): approximately twice as active
